The source of these data is patent US20240158446A1, “CYCLIC COMPOUND HAVING SELECTIVE INHIBITORY ACTION ON KRAS OVER HRAS AND NRAS” (CHUGAI SEIYAKU KABUSHIKI KAISHA, priority 2021, published 2024).

*1 amine or outer side, *2 acyl side, *3 side chain or, on linkers, in order; H or OH if unused. Where a SMILES comes first, the peptide text is derived from it. Bridges are numbered along the chain shown (N, C = ends). [ ]: non-standard residue; d: D form. The star is where a group is joined. hPhe(3,5-F2-4-CF3) = N[C@@H](CCc1cc(F)c(C(F)(F)F)c(F)c1)C(=O)O; hPhe(3-Cl-4-CF3) = N[C@@H](CCc1ccc(C(F)(F)F)c(Cl)c1)C(=O)O; X49 = CCCN([C@@H](Cc1ccc(OCC=[*:3])cc1)C(=O)[*:2])[*:1]; NPrPhe(4-CF3) = CCCN[C@@H](Cc1ccc(C(F)(F)F)cc1)C(=O)O; X48 = CN([C@@H](CCC=[*:3])C(=O)[*:2])[*:1]; Abu(4,4,4-F3) = N[C@@H](CC(F)(F)F)C(=O)O; NMeGly(cPent) = CN[C@H](C(=O)O)C1CCCC1; Hyp = O=C(O)[C@@H]1C[C@@H](O)CN1; NMeD = CN[C@@H](CC(=O)O)C(=O)O; NMeL = CN[C@@H](CC(C)C)C(=O)O; αMeS = C[C@](N)(CO)C(=O)O; Morpholide = C1CN(*)CCO1; Ac5c = NC1(C(=O)O)CCCC1; Aze = O=C(O)[C@@H]1CCN1; Sar = CNCC(=O)O; Allyl = C=CC*

Experiment [1] has as its target GDP-bound HRAS wild-type protein (Homo sapiens, UniProt P01112). Briefly: Binding to HRAS by surface plasmon resonance (SPR), Single Cycle Kinetics. Conditions: SPR, GDP-bound HRAS wild-type protein vs GDP-bound KRAS wild-type protein. In general terms: Surface plasmon resonance follows binding to a sensor surface in real time, without labels.
Experiment [2] has as its target GDP-bound NRAS wild-type protein (Homo sapiens, UniProt P01111). Briefly: Binding to NRAS by surface plasmon resonance (SPR), Single Cycle Kinetics. Conditions: SPR, GDP-bound NRAS wild-type protein vs GDP-bound KRAS wild-type protein.
In experiment [3] the test system is human lung cancer strain NCI-H441.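 Further: cell proliferation inhibition after four days measured by CellTiter-Glo.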

Sequence of GDP-bound HRAS wild-type protein (P01112 whole entry): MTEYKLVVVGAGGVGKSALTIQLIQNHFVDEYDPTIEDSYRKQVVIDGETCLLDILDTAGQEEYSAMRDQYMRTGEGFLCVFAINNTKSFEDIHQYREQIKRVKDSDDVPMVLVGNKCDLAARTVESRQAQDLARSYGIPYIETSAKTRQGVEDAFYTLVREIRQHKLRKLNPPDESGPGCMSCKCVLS
Sequence of GDP-bound NRAS wild-type protein (P01111 whole entry): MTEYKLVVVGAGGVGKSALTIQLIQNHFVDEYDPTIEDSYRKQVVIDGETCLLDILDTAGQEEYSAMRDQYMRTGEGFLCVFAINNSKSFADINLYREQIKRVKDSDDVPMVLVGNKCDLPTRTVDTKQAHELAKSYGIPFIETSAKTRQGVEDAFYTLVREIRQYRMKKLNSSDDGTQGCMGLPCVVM

By IC50 is commonly meant the midpoint of a concentration-inhibition curve. Read a high IC50 as weaker potency. Regarding `CCO[C@@H]1C[C@H]2C(=O)NC3(CCC3)C(=O)N(C)[C@@H](C3CCCC3)C(=O)N(C)[C@H](C(=O)N(C)C)CC(=O)N(C)[C@@H](Cc3ccccc3)C(=O)N[C@@H]([C@@H](C)CC)C(=O)N(C)CC(=O)N(C)[C@H]3CCCCCN(C3=O)[C@@H](Cc3ccc(C(F)(F)F)cc3)C(=O)N(C)CC(=O)N[C@@H](CCc3cc(F)c(C(F)(F)F)c(F)c3)C(=O)N2C1` [PP0672], in experiment [1], the “HRAS/KRAS (ratio of KD value with respect to HRAS to KD value with respect to KRAS)” value is “B (a compound having 3 or more and less than 10 is denoted as B)”. Also, the “NRAS/KRAS (ratio of KD value with respect to NRAS to KD value with respect to KRAS)” value in experiment [2] was “B (a compound having 3 or more and less than 10 is denoted as B)”. For the same compound, it took 19.7 nM to reach half-maximal inhibition in experiment [3] (IC50).

`CCO[C@@H]1C[C@H]2C(=O)NC3(CCC3)C(=O)N(C)[C@@H](C3CCCC3)C(=O)N(C)[C@H](C(=O)N(C)C)CC(=O)N(C)[C@@H](CC)C(=O)N[C@@H]([C@@H](C)CC)C(=O)N(C)CC(=O)N(C)[C@H]3CCCCCN(C3=O)[C@@H](Cc3nccs3)C(=O)N(C)CC(=O)N[C@@H](CCc3cc(F)c(C(F)(F)F)c(F)c3)C(=O)N2C1` [PP0913]: the “HRAS/KRAS (ratio of KD value for HRAS to KD value for KRAS)” value in experiment [1] was “B (a compound having 3 or more and less than 10 is denoted as B)”. For the same compound, the “NRAS/KRAS (ratio of KD value for NRAS to KD value for KRAS)” value in experiment [2] was “B (a compound having 3 or more and less than 10 is denoted as B)”. In experiment [3], this compound had a half-maximal inhibitory concentration (IC50) of 206 nM.

With `CCCN1C(=O)CN(C)C(=O)[C@@H]2CCN2C(=O)[C@H]([C@@H](C)CC)NC(=O)[C@H](CC(C)C)N(C)C(=O)C[C@@H](C(=O)N2CCOCC2)NC(=O)[C@H](C2CCCC2)N(C)C(=O)C2(CCCC2)NC(=O)[C@@H]2C[C@@H](OCC)CN2C(=O)[C@H](CCc2ccc(C(F)(F)F)c(Cl)c2)NC(=O)CN(C)C(=O)[C@@H]1Cc1ccc(C(F)(F)F)cc1` [PP0341] ([NMeL]I[Aze][Sar][NPrPhe(4-CF3)][Sar][hPhe(3-Cl-4-CF3)][Hyp](Et)[Ac5c][NMeGly(cPent)]D-Morpholide; lactam N-11), the “HRAS/KRAS (ratio of KD value for HRAS to KD value for KRAS)” value in experiment [1] was “B (a compound having 3 or more and less than 10 is denoted as B)”. Moreover, in experiment [2], the “NRAS/KRAS (ratio of KD value for NRAS to KD value for KRAS)” value is “B (a compound having 3 or more and less than 10 is denoted as B)”. This compound returned an IC50 in experiment [3] of 135 nM.

`CCO[C@@H]1C[C@H]2C(=O)NC3(CCC3)C(=O)N(C)[C@@H](C3CCCC3)C(=O)N(C)[C@H](C(=O)N(C)C)CC(=O)N(CC)[C@@H](CC(C)C)C(=O)N[C@@H]([C@@H](C)CC)C(=O)N(C)CC(=O)N(C)[C@H]3CC(C)=CCN(C3=O)[C@@H](Cc3ccc(C(F)(F)F)cc3)C(=O)N(C)CC(=O)N[C@@H](CCc3cc(F)c(C(F)(F)F)c(F)c3)C(=O)N2C1` [PP1037]: the “HRAS/KRAS (ratio of KD value for HRAS to KD value for KRAS)” value in experiment [1] was “C (A compound having a KD ratio of 0.1 or more and less than 3 is denoted as C)”. In addition, in experiment [2], the “NRAS/KRAS (ratio of KD value for NRAS to KD value for KRAS)” value was “C (A compound having a KD ratio of 0.1 or more and less than 3 is denoted as C)”. This compound came in with an IC50 in experiment [3] of 296 nM.

As for `CC[C@H](C)[C@@H]1NC(=O)[C@H](Cc2cccc(Cl)c2)N(C)C(=O)C[C@@H](C(=O)N2CCOCC2)N(C)C(=O)[C@H](C2CCCC2)N(C)C(=O)C2(CCCC2)NC(=O)[C@@H]2CCCN2C(=O)[C@H](CCc2ccc(C(F)(F)F)c(Cl)c2)NC(=O)CN(C)C(=O)[C@H](Cc2ccc(F)cc2)N2CCCCC[C@@H](C2=O)N(C)C(=O)CN(C)C1=O` [PP0963], in experiment [1], the “HRAS/KRAS (ratio of KD value for HRAS to KD value for KRAS)” value was “B (a compound having 3 or more and less than 10 is denoted as B)”. Further, the “NRAS/KRAS (ratio of KD value for NRAS to KD value for KRAS)” value in experiment [2] was “B (a compound having 3 or more and less than 10 is denoted as B)”. In experiment [3], this compound showed an IC50 of 100 nM.

Regarding `CCCN1C(=O)CN(C)C(=O)[C@@H]2CCN2C(=O)[C@H]([C@@H](C)CC)NC(=O)[C@H](CC(C)C)N(C)C(=O)C[C@@H](C(=O)N(C)C)N(C)C(=O)[C@H](C2CCCC2)N(C)C(=O)C2(CCCC2)NC(=O)[C@@H]2CCCN2C(=O)[C@H](CCc2ccc(C(F)(F)F)c(Cl)c2)NC(=O)CN(C)C(=O)[C@@H]1Cc1ccc(C(F)(F)F)cc1` [PP0429] ([NMeL]I[Aze][Sar][NPrPhe(4-CF3)][Sar][hPhe(3-Cl-4-CF3)]P[Ac5c][NMeGly(cPent)][NMeD]-NMe2; lactam N-11), the “HRAS/KRAS (ratio of KD value with respect to HRAS to KD value with respect to KRAS)” value in experiment [1] was “C (A compound having a KD ratio of 0.1 or more and less than 3 is denoted as C)”. In experiment [2], the “NRAS/KRAS (ratio of KD value with respect to NRAS to KD value with respect to KRAS)” value was “B (a compound having 3 or more and less than 10 is denoted as B)”. In addition, in experiment [3], the IC50 was determined as 12.4 nM.

Take `CCCN1C(=O)CN(C)C(=O)[C@@H]2CCN2C(=O)[C@H](CC(F)(F)F)NC(=O)[C@H](CC(C)C)N(C)C(=O)C[C@@H](C(=O)N2CCOCC2)N(C)C(=O)[C@H](C2CCCC2)N(C)C(=O)C2(CCCC2)NC(=O)[C@@H]2CCCN2C(=O)[C@H](CCc2ccc(C(F)(F)F)c(Cl)c2)NC(=O)CN(C)C(=O)[C@@H]1Cc1ccc(C(F)(F)F)cc1` [PP0304] ([NMeL][Abu(4,4,4-F3)][Aze][Sar][NPrPhe(4-CF3)][Sar][hPhe(3-Cl-4-CF3)]P[Ac5c][NMeGly(cPent)][NMeD]-Morpholide; lactam N-11): the “HRAS/KRAS (ratio of KD value for HRAS to KD value for KRAS)” value in experiment [1] is “B (a compound having 3 or more and less than 10 is denoted as B)”. Further, the “NRAS/KRAS (ratio of KD value for NRAS to KD value for KRAS)” value in experiment [2] is “B (a compound having 3 or more and less than 10 is denoted as B)”. Besides, half-maximal inhibition in experiment [3] (IC50) required 112 nM.

Turning to `CCCN1C(=O)CN(C)C(=O)CN(C)C(=O)[C@H]([C@@H](C)CC)NC(=O)[C@@H]2CCC=CCOc3ccc(cc3)C[C@H]1C(=O)N(C)CC(=O)N[C@@H](CCc1cc(F)c(C(F)(F)F)c(F)c1)C(=O)N1C[C@H](OCC)C[C@H]1C(=O)NC1(CCCC1)C(=O)N(C)[C@@H](C1CCCC1)C(=O)N(C)[C@H](C(=O)N(C)C)CC(=O)N2C` [PP0900] ([X48]I[Sar][Sar][X49][Sar][hPhe(3,5-F2-4-CF3)][Hyp](Et)[Ac5c][NMeGly(cPent)][NMeD]-NMe2; staple 1-5; lactam N-11), the “HRAS/KRAS (ratio of KD value for HRAS to KD value for KRAS)” value in experiment [1] was “C (A compound having a KD ratio of 0.1 or more and less than 3 is denoted as C)”. The “NRAS/KRAS (ratio of KD value for NRAS to KD value for KRAS)” value in experiment [2] is “C (A compound having a KD ratio of 0.1 or more and less than 3 is denoted as C)”. The same compound had an IC50 in experiment [3] of 4.9 nM.

For `C=CCOC[C@]1(C)NC(=O)[C@@H]2CCCN2C(=O)[C@H](CCc2cc(F)c(C(F)(F)F)c(F)c2)NC(=O)CN(C)C(=O)[C@H](Cc2ccc(C(F)(F)F)cc2)N(CCC)C(=O)CN(C)C(=O)CN(C)C(=O)[C@H]([C@@H](C)CC)NC(=O)[C@H](CC(C)C)N(C)C(=O)C[C@@H](C(=O)N2CCOCC2)N(C)C(=O)[C@H](C2CCCC2)N(C)C1=O` [PP0763] ([NMeL]I[Sar][Sar][NPrPhe(4-CF3)][Sar][hPhe(3,5-F2-4-CF3)]P[αMeS](Allyl)[NMeGly(cPent)][NMeD]-Morpholide; lactam N-11), the “HRAS/KRAS (ratio of KD value with respect to HRAS to KD value with respect to KRAS)” value in experiment [1] was “B (a compound having 3 or more and less than 10 is denoted as B)”. Besides, the “NRAS/KRAS (ratio of KD value with respect to NRAS to KD value with respect to KRAS)” value in experiment [2] is “B (a compound having 3 or more and less than 10 is denoted as B)”. Moreover, it took 83 nM to reach half-maximal inhibition in experiment [3] (IC50).
